# Where two headings read alike, the source gives them in different places.
# Assays:
# [1] = molecular target: T1, MSOX (monomeric sarcosine oxidase) (Bacillus sp., UniProt P40859); assay: Spectral titration of MSOX; format: binding; conditions: for Kd: 50 mM potassium phosphate buffer
# T1 sequence (P40859 1-390): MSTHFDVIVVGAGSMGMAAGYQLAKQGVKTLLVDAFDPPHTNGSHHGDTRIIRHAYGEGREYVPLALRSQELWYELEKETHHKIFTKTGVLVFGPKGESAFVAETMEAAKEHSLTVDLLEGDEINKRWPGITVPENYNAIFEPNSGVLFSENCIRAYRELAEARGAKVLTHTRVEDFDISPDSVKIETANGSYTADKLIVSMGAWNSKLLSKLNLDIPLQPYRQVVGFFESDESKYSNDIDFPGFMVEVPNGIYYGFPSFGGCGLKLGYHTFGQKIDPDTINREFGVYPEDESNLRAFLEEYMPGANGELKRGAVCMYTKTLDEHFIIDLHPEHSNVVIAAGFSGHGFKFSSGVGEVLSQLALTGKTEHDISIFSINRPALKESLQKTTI
# reduced MSOX [2] = molecular target: T2, reduced MSOX (Bacillus sp., UniProt P40859)
# Lys265Met MSOX mutant = Lys265Met MSOX mutant (Bacillus sp., UniProt P40859, K266M); conditions: absorption spectrum of mutant unaffected by 2.0 M potassium chloride
# GOX (glucose oxidase) = GOX (glucose oxidase) (Aspergillus niger, UniProt P13006); assay: biochemical
# reduced MSOX [3] = molecular target: T2, reduced MSOX; conditions: absence of chloride; cited from earlier work
# reduced MSOX [4] = molecular target: T2, reduced MSOX; assay: biochemical
# GOX (glucose oxidase), sequence (P13006 23-605 limits assumed): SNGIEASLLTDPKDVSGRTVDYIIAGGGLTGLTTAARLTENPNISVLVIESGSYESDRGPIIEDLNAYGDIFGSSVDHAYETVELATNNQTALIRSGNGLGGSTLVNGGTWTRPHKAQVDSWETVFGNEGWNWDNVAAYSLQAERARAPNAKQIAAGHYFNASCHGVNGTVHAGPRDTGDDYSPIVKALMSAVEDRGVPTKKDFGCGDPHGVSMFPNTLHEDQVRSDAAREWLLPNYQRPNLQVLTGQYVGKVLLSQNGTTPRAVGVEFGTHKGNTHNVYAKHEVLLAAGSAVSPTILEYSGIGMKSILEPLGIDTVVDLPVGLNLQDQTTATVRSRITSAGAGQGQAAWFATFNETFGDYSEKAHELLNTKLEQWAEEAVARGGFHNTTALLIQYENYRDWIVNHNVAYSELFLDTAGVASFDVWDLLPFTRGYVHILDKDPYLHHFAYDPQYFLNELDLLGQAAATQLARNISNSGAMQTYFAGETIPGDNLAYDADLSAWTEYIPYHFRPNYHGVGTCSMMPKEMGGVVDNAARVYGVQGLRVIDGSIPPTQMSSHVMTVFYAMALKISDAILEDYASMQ
compound,measurement,setting,value
"CSCC(=O)O [MTA, methylthioacetate]",Kd,"[1]; MSOX + MTA ⇄ MSOX•MTA, no additions, pH 8.0, 25 °C",2.43 ± 0.02 mM
same,Kd,"[1]; MSOX + MTA ⇄ MSOX•MTA, plus 667 mM sodium sulfate, pH 8.0, 25 °C, plus 667 mM sodium sulfate",1.84 ± 0.01 mM
same,Kd,"[1]; MSOX•Cl− + MTA ⇄ MSOX•Cl−•MTA, pH 8.0, containing 2.0 M potassium chloride, 25 °C, absorbance at 528 nm",4.9 ± 0.07 mM
Cl [chloride],Chloride binding at oxygen activation site of reduced MSOX in solution,reduced MSOX [2],not bound
same,Chloride binding to Lys265Met MSOX,Lys265Met MSOX mutant,eliminates chloride binding
same,Kd,GOX (glucose oxidase),6.2 ± 0.1 mM
O=O [oxygen],Second-order rate constant for reaction of reduced MSOX with oxygen,"reduced MSOX [2]; 50 mM potassium phosphate, pH 8.0, 2.0 M potassium chloride, 25 °C, monitored at 454 nm",2.48 ± 0.03 × 10^5 M^−1 s^−1
same,Second-order rate constant for reaction of reduced MSOX with oxygen,reduced MSOX [3],2.83 ± 0.07 × 10^5 M^−1 s^−1
same,Kd,reduced MSOX [4],≥ 10 mM
"O=S(=O)([O-])[O-].[Na+].[Na+] [sulfate, sodium sulfate]",Binding of sulfate to MSOX,[1]; 667 mM sodium sulfate control for ionic strength,does not bind
